From article PMC5007466, “VCP recruitment to mitochondria causes mitophagy impairment and neurodegeneration in models of Huntington's disease” (Nature Communications, 2016)

How the values were obtained:
C57Black mice = test: Hematology of naive mice; type: in vivo, mouse; details: 3 mg/kg/day, 4 weeks
Method: Supplementary Figure 8 : Toxicity analysis of HV -3in naïve mice .
We performed a toxicity analysis of HV-3 in mice. Six -week-old C57Black mice were treated with saline or peptide HV-3 at 3mg/kg/day by Alzet pump implantation. After 4- week treatment, the plasma, blood and whole mouse bodies of mice were collected. Examination on blood chemistry (Supplementary Table 1), hematology (Supplementary Table 2) and general necropsy of mice were performed at the Animal Diagnostic Laboratory at Stanford University. The experimenter who conducted the analysis was blind to the treatment groups. Automated hematology was performed on the Sysmex XT-2000iV analyzer system. Blood smears were made for all full CBC samples and reviewed by a medical technologist. Manual differentials were performed as indicated by species and automated analysis. Chemistry analysis was performed on the Siemens Dimension Xpand analyzer. […]
Student’s t test. Four-week sustained treatment with HV-3 by pump implantation had no effects on blood chemistry (Supplementary Table 1), hematology (Supplementary Table 2), and gross necropsy of naïve mice when compared to mice treated with saline. […]
Table 2: Effects of 4-w eek treatment w ith HV-3 on hematology of naïve mice […]
Mean SD Mean SD p-value unit n

[1] = LC/MS detection of HV-3 in mouse brain and plasma; type: in vivo; details: LC/MS m/z 506.4
Source text: The new figures above and related figure legends have all been added to the revised manuscript. The related discussion has been added on page 17 line 2 and line 5. The methods of ITC and immunoprecipitation with biotin-peptides have been added to the Method section (see pages 21-23) of […]
Comment 3: The in vivo use of TAT-tagged HV-3 peptide lacks essential PK/PD data. What is the PK/PD of the reagent with their osmotic pump delivery? The data in Supplemental Fig. 5B is simply unacceptable, with different background between control and HV-3, and with only a few cells shown and without any quantitation. Is there any long-term toxicity of such delivery? Did they measure adaptive immune response to the HV-3 peptide? And if there is such a response, do the immune reactions rather than inhibition of mHTT-VCP interactions underlying therapeutic effects? Response: For the analysis of PK/PD, we have to subcontract with bio-company. The cost will be a minimum of $80,000. Due to limited funds, we cannot afford such an expensive experiment. Working with the Mass Spectrometry Core Facility at Cleveland Clinic Foundation Research Center, we attempted to determine the concentration of HV-3 after treatment in mice by pump implantation. […]
by protein precipitation methods (see figure below). […]
proteins in mice after treatment. The data seem to be consistent with our findings that HV-3 binds to VCP. Because of current technical constraints to dissociate peptide from the binding proteins, we were not able to test the accurate concentration of the peptide HV-3 in brain tissues and plasma. Therefore, we […]
We would appreciate it if the reviewer could understand.
Based on the reviewer’s comment, in the revised manuscript, we removed the original supplemental […]
Regarding toxicity of HV3, we performed toxicity analysis of HV-3 in mice at Stanford University. […]
ions in positive electrospray ionization and the ion at 5 charged (m/z 506.4) has the highest intensity on the Shimadzu LC/MS 8050. (B) HV-3 at 5 charged (m/z 506.4) in positive electrospray ionization was monitored. […]

R6/2 mice = test: DARPP-32 immunostaining of striatum; type: in vivo, mouse; details: R6/2, 3 mg kg^−1 per day, n=6
Method: Male hemizygous R6/2 mice (Tg) and their age-matched wt littermates (5-week-old) were implanted with a 28-day osmotic pump (Alzet, Cupertino CA) containing TAT control peptide or HV-3 peptide, which delivered peptides to the mice at a rate of 3 mg kg^−1 per day. The first pump was implanted subcutaneously in the back of 5-week-old mice between the shoulders and replaced once, after 4 weeks.
Mice were deeply anaesthetized and transcardially perfused with 4% paraformaldehyde in PBS. Brains were processed for paraffin embedment. Brain sections (5 μm, coronal) were used for immunohistochemical localization of DARPP-32 (1:500, Epitomics) using the IHC Select HRP/DAB kit (Millipore). Quantitation of DARPP-32 immunostaining was conducted using NIH image J software. The same image exposure times and threshold settings were used for sections from all treatment groups.

CSCC[C@H](NC(=O)[C@@H](NC(=O)[C@H](CC(C)C)NC(=O)[C@@H](NC(=O)[C@H](Cc1c[nH]cn1)NC(=O)CCCCCNC(=O)[C@H](CCCNC(=N)N)NC(=O)[C@H](CCCNC(=N)N)NC(=O)[C@H](CCCNC(=N)N)NC(=O)[C@H](CCC(N)=O)NC(=O)[C@H](CCCNC(=N)N)NC(=O)[C@H](CCCNC(=N)N)NC(=O)[C@H](CCCCN)NC(=O)[C@H](CCCCN)NC(=O)[C@H](CCCNC(=N)N)NC(=O)CNC(=O)[C@@H](N)Cc1ccc(O)cc1)C(C)C)C(C)C)C(=O)N[C@@H](CS)C(=O)N[C@@H](C)C(=O)N[C@H](C(N)=O)[C@@H](C)O [HV-3]
Eosinophils (C57Black mice; mean, n = 4/group): 37.00 | HCT (C57Black mice; mean, n = 4/group): 44.60% | Hgb (C57Black mice; mean, n = 4/group): 13.93 gm/dL | IRF (C57Black mice; mean, n = 4/group): 53.97% | Lymphocytes (C57Black mice; mean, n = 4/group): 1645.00 | MCH (C57Black mice; mean, n = 4/group): 14.90 pg | MCHC (C57Black mice; mean, n = 4/group): 31.27 g/dL | MCV (C57Black mice; mean, n = 4/group): 47.67 fL | Monocytes (C57Black mice; mean, n = 4/group): 182.33 | Neutrophils (C57Black mice; mean, n = 4/group): 1525.67 | Platelet count (C57Black mice; mean, n = 4/group): 1021.33 K/uL | RBC (C57Black mice; mean, n = 4/group): 9.37 M/uL | RDW (C57Black mice; mean, n = 4/group): 21.77% | Reticulocyte Count (C57Black mice; mean, n = 4/group): 4.30% | WBC (C57Black mice; mean, n = 4/group): 3.39 K/uL | hematology (overall) (C57Black mice; versus saline): no effects | HV-3 in supernatant of plasma after protein precipitation ([1]; mice, pump implantation): not detectable | HV-3 in total brain lysates, plasma and precipitated plasma proteins ([1]; mice, pump implantation): can be detected | HV-3 in brain total lysates over time ([1]; mouse brain total lysates without protein precipitation, legend prints HV-3 (1000 nM)): day, one week and two weeks after treatment | area of DARPP-32-immunostained cells in striatum (R6/2 mice): increased by HV-3 treatment
